Measured values: PubChem BioAssay AID2740 (NMMLSC, 2010)
Calls of active or inactive are those of the source.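 The calls were made as follows: active = compounds whose fitted half-maximal concentration for changing the GFP signal is at or below a set limit; inactive = the rest.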

assay: TOR pathway RPL19A-GFP modulators, concentration series – cell-based, S. cerevisiae, flow cytometry, MLPCN hits, dose response (AID 2740);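 also: background is signal of the same compound in parental non-GFP s288c yeast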; conditions: S. cerevisiae RPL19A-GFP strain, flow cytometry fluorescence, 3 h; at 33 µM (top of the series)

| Structure (SMILES) | GFP fluorescence, lower = active (kMESF (background-subtracted)) |
| --- | --- |
| CC(C)(C)C(=O)NC(=S)NNC(=O)c1ccc(-c2ccccc2)cc1 | 40.7 (inactive) |
| Cc1ccc(N=c2ssnc2Cl)cc1 | 23 (inactive) |
| Cc1ccc(C(=O)Oc2oc(-c3ccco3)nc2C=Nc2ccc(Cl)cc2)cc1 | 40.8 (inactive) |
| CCC(=O)Nc1ccc(NC(=O)c2cc3ccccc3o2)cc1 | 39.4 (inactive) |
| Cc1ccsc1/C=C1\C(=O)NC(=S)N(C)C1=O | 19.6 (inactive) |
| Cc1ccc(/C=C2\C(=O)NC(=S)N(c3ccc(F)cc3)C2=O)s1 | 38 (inactive) |
| Cc1cc(O)c(C(=O)/C=C/c2c(F)c(F)c(F)c(F)c2F)c(=O)o1 | 26.6 (inactive) |
| CN(O)/C=c1/ccc2c(n1)C(=O)C=CC=2 | 39.2 (inactive) |
| O=C(Oc1oc(-c2ccco2)nc1C=Nc1ccccc1)c1ccco1 | 38.5 (inactive) |
| Oc1c(CN2CCN(c3ccc(F)cc3)CC2)cc(Cl)c2cccnc12 | 40.4 (inactive) |
| CC[C@H](C)/C=C(C)/C=C/C1=CC2=C(Cl)C(=O)[C@@](C)(OC(C)=O)C(=O)C2=CO1 | 4.51 (inactive) |
| Nc1ccccc1C#CC(=O)c1ccccc1 | 21 (inactive) |
| CCCCC(=O)NNC(=S)NC(=O)c1ccc(C)cc1 | 42.3 (inactive) |
| Cc1cccc(/C=C/C(=O)c2ccc([N+](=O)[O-])o2)c1 | 16.1 (inactive) |
| Cc1[nH]n(-c2ccccc2)c(=O)c1C(c1ccccc1[N+](=O)[O-])C(C#N)C#N (stereo unspecified) | 24.7 (inactive) |
| Cc1cccc(C(=O)NC(=S)NNC(=O)Cc2ccccc2)c1 | 52.4 (inactive) |
| Cc1ccc(N2C(=O)C(Cl)=C(Nc3c(C)n(C)n(-c4ccccc4)c3=O)C2=O)cc1 | 39 (inactive) |
| Cc1cc(Br)c2c(c1)/C(=C/C(=O)c1cccs1)C(=O)N2 | 40.3 (inactive) |
| O=C1c2cccc3c([N+](=O)[O-])ccc(c23)C(=O)N1c1ccccn1 | 55.8 (inactive) |
| O=C(Oc1c(Cl)cc(Cl)c2cccnc12)c1cccc([N+](=O)[O-])c1 | 24.8 (inactive) |
| COc1ccc(C(=O)/C=C2/C(=O)Nc3ccccc32)cc1OC | 43.1 (inactive) |

| Structure (SMILES) | GFP fluorescence, lower = active (kMESF (background-subtracted)) |
| --- | --- |
| Cc1cc(=O)oc2cc(Oc3ccc([N+](=O)[O-])cc3C(F)(F)F)ccc12 | 44.2 (inactive) |
| CCc1ccc(C(=O)/C=C/c2ccc([N+](=O)[O-])o2)cc1 | 48.7 (inactive) |
| COc1ccc(C(=O)NC(=S)NNC(=O)c2cnccn2)cc1 | 35.4 (inactive) |
| CCN(CC)C(=S)SSC(=S)N(CC)CC | 34.1 (inactive) |
| CC(=O)N(C(C)=O)c1ncnc2c1c(-c1ccc(Cl)cc1)nn2C(C)(C)C | 42.9 (inactive) |
| COc1ccc(N2CCN(C(=O)c3ccc(Br)cc3)CC2)c([N+](=O)[O-])c1 | 47.4 (inactive) |
| C[n+]1ccc(/C=C/c2c[nH]c3ccccc23)cc1 | 53.8 (inactive) |
| O=C1C=C(Nc2ccc(Cl)cc2)C(=O)N1c1ccc(Cl)cc1 | 39.1 (inactive) |
| COc1cccc(N=Nc2ccc(O)c3ncccc23)c1 | 50.7 (inactive) |
| COc1ccc([N+](=O)[O-])c(S(=O)(=O)c2ccccc2)n1 | 39.1 (inactive) |
| COc1ccc([C@]2(C(C)C)ON(c3ccccc3C(F)(F)F)C2=O)cc1 | 46 (inactive) |
| O=S1(=O)C=C(Sc2nc3ccccc3s2)c2ccccc21 | 36 (inactive) |
| CC[C@@]1(c2ccccc2OC)ON(c2ccccc2C(F)(F)F)C1=O | 35.9 (inactive) |
| O=[N+]([O-])c1cc(CN2CCN(c3cccc(C(F)(F)F)c3)CC2)c2cccnc2c1O | 22.7 (inactive) |
| COc1cc(/C=C2\C(=O)N(CCC#N)N=C2C)c(Br)cc1OC(C)C | 39.9 (inactive) |
| O=C(Nc1cccc(-c2csc(Nc3ccccc3)n2)c1)c1ccccc1 | 33.7 (inactive) |
| O=C1N(c2ccccc2C(F)(F)F)O[C@@]1(c1ccccc1)C1CCCC1 | 46 (inactive) |
| O=C(Oc1c(Cl)cc(Cl)c2cccnc12)c1cccs1 | 36.1 (inactive) |
| CCN(CC)c1ccc2cc(-c3nc(-c4ccc(OC)cc4)cs3)c(=O)oc2c1 | 40 (inactive) |
| O=C(NOC(=O)c1ccccc1)c1ccccc1 | 38.1 (inactive) |
